The subject of experiment [1] is Bacillus stearothermophilus spores. The experiment in a line: Spore outgrowth (color change) of indicators after prevacuum steam sterilization. The class given is cell-based. The following applies: 4-pulse prevacuum steam 121° C. The protocol: (§1) The indicators prepared for the Examples were dual rapid readout indicators that provided both a rapid, enzyme-based efficacy test and a confirmatory spore outgrowth test. Spores coated on the carrier strip 16 served as the source of active enzyme whose activity was measured by the rapid enzyme test. These same spores were then incubated in the spore outgrowth portion of the test.
(§2) Bacillus stearothermophilus, commercially available as ATCC 7953 from American Type Culture Collection, Rockville, Md., was grown overnight (16 hours) at 58° C. in tryptic soy broth. This culture was used to inoculate the surface of agar plates consisting of 8 g/l nutrient broth, 4 g/l yeast extract, 0.1 g/l manganese chloride and 20 g/l agar at pH 7.2. Plates were incubated at 58° C. for 72 hours. Spores were scraped from the plates and suspended in sterile distilled water. The spores were separated from the vegetative debris by centrifuging the suspension at 7000 rpm and 4° C. for 20 minutes. The supernatant was poured off and the spores were resuspended in sterile distilled water. The cleaning procedure was repeated several times. After the final wash, the spores were suspended in sterile distilled water, at a concentration of approximately 1×10^8 spores per milliliter.
(§3) The spores were then treated with the chemicals identified in Tables 1–5. All chemicals tested were obtained from commercial sources. The spores were centrifuged at 6000 rpm for 10 minutes. The supernatant and coating chemical mixtures were heated at 60–80° C. for several minutes and vortexed to get the material into solution. The spores were then mixed into the sterilant-resistant chemical solution. The sterilant-resistant chemical solution was applied to 5×25 mm, 591 A paper strips (Schleicher & Schuell, Inc., Keene, N.H.) by pipetting 10–15 microliters to each strip for a final population of about 1×10^6 spores per strip. The strips were dried 16 hours at 37° C.
(§4) The treated spore strips were placed on the bottom of the outer container 12 of the indicator 10 and a barrier was inserted between the spore strip 16 and the inner container 18, which contained enzyme substrate. A […] ( 11/16 inch) disc of polypropylene blown microfiber material, with a weight of 200 g/m^2, commercially available as “THINSULATE™ 200-B brand Thermal Insulation” from 3M Company, St. Paul, Minn., was used as the barrier. The inner container 18 contained 0.67 ml nutrient medium, consisting of 17 g of a bacteriological peptone and a 0.17 g/l of L-alanine, as well as 0.1 g 4-methylumbelliferyl-alpha-D-glucoside, commercially available from Sigma Chemical Company, St. Louis, Mo., dissolved in 200 microliters of N,N-dimethylformamide, and 0.03 g bromocresol purple pH indicator dye, per liter of water. The pH of the enzyme substrate and nutrient medium solution was adjusted to 7.6 with 0.1N sodium hydroxide.
(§5) Sterilization indicators were made as described above with each of the chemicals and concentrations described in Table 1. Control indicators were made using untreated spores. The indicators were placed in metal instrument trays and exposed at 121° C. in a Getinge Steam Sterilizer (Getinge International, Inc., 1100 Towbin Ave., Lakewood, N.J.) using a 4-pulse prevacuum cycle at 121° C. with a vacuum level of 0.075–0.085 bar and a steam pulse to 1.00 bar for each pulse. Indicators were exposed in the sterilizer for between 7 and 13 minutes. This cycle is depicted in the time-pressure diagram in FIG. 5. After exposure the inner containers containing the enzyme substrate and nutrient medium were crushed and the indicators were incubated at 60° C. The indicators were examined for fluorescence using a 3M™ ATTEST™ Model 190 Rapid Autoreader, commercially available from 3M Company, St. Paul, Minn. Additionally, spore growth, as indicated by a color change from purple to yellow, was determined visually after 168 hours of incubation at 60° C. […]

Experiment [2] deals with enzyme associated with Bacillus stearothermophilus spores. The experiment in a line: Rapid enzyme fluorescence readout of dual rapid readout indicators after prevacuum steam sterilization. Format: biochemical. As to conditions: 4-pulse prevacuum steam 121° C. The protocol: as §1, §2, §3, §4, §5
[3] abbreviates: Example 3, 100 mg/ml coating, 7–15 min.
[4] abbreviates: Example 4, 100 mg/ml coating, 7–18 min.
Where [5] appears, read: Example 2, 5 mg/ml coating, 7–13 min.
The mark [6] stands for this setting: Example 2, 10 mg/ml coating, 7–13 min.
Setting [7] is: Example 2, 20 mg/ml coating, 7–13 min.
Where [8] appears, read: Example 2, 40 mg/ml coating, 7–13 min.
Setting [9] is: Example 2, 80 mg/ml coating, 7–13 min.
Setting [10] is: Example 5, 50 mg/ml coating, 7–13 min.
Setting [11] is: Example 5, 100 mg/ml coating, 7–13 min.

For `OC[C@@H](O)[C@@H](O)[C@H](O)[C@@H](O)CO` [Sorbitol], in experiment [1] (setting [3]), the “GROWTH POSITIVE 168 HR” value came out at 36. The “NO. GROWTH POSITIVE 168 HR” value in experiment [1] (setting [4]) was found to be 37. Further, in experiment [2] (setting [3]), the “FLUORESCENCE - PERCENT POSITIVE 1 HR” value turned out to be 0%, the “FLUORESCENCE - PERCENT POSITIVE 2 HR” value amounted to 52.8%, the “FLUORESCENCE - PERCENT POSITIVE 3 HR” value was found to be 83.3% and the “FLUORESCENCE - PERCENT POSITIVE 4 HR” value is 91.7%. Also, in experiment [2] (setting [4]), the “FLUORESCENCE - PERCENT POSITIVE 1 HR” value is reported as 5.4%, the “FLUORESCENCE - PERCENT POSITIVE 2 HR” value is given as 40.5%, the “FLUORESCENCE - PERCENT POSITIVE 3 HR” value is listed as 81.1% and the “FLUORESCENCE - PERCENT POSITIVE 4 HR” value stood at 89.2%.

On to `OCC(O)COCC(O)COCC(O)CO` (stereo not shown) [Triglycerol], for which the “NO. GROWTH POSITIVE 168 HR” value in experiment [1] (setting [5]) amounted to 10; in experiment [1] (setting [6]), 15; in experiment [1] (setting [7]) it was 24; in experiment [1] (setting [8]), 27; in experiment [1] (setting [9]), 31. The “accuracy of sterilization indicators compared to indicators made with untreated spores” value in experiment [2] is reported as “did not improve the accuracy”. For the same compound, the “FLUORESCENCE - PERCENT POSITIVE 1 HR” value in experiment [2] (setting [5]), in experiment [2] (setting [6]), in experiment [2] (setting [7]), in experiment [2] (setting [8]) and in experiment [2] (setting [9]) was 0% in each case. For the same compound, the “FLUORESCENCE - PERCENT POSITIVE 2 HR” value in experiment [2] (setting [5]) is reported as 0%; in experiment [2] (setting [6]), 6.7%; in experiment [2] (setting [7]), 0%; in experiment [2] (setting [8]), 0%; in experiment [2] (setting [9]), 3.2%. For the same compound, the “FLUORESCENCE - PERCENT POSITIVE 3 HR” value in experiment [2] (setting [5]) amounted to 0%; in experiment [2] (setting [6]), 20.0%; in experiment [2] (setting [7]) it was 8.3%; in experiment [2] (setting [8]) it was 29.6%; in experiment [2] (setting [9]), 38.7%. For the same compound, the “FLUORESCENCE - PERCENT POSITIVE 4 HR” value in experiment [2] (setting [5]) was 10.0%; in experiment [2] (setting [6]) it was 26.7%; in experiment [2] (setting [7]), 29.2%; in experiment [2] (setting [8]) it was 48.1%; in experiment [2] (setting [9]) it was 51.6%. The “FLUORESCENCE - PERCENT POSITIVE 5 HR” value was found to be 30.0% in experiment [2] (setting [5]); 53.3% in experiment [2] (setting [6]); 41.7% in experiment [2] (setting [7]); 51.9% in experiment [2] (setting [8]); 58.1% in experiment [2] (setting [9]). Also, the “FLUORESCENCE - PERCENT POSITIVE 6 HR” value in experiment [2] (setting [5]) was determined as 40.0%; in experiment [2] (setting [6]) it was 60.0%; in experiment [2] (setting [7]), 45.8%; in experiment [2] (setting [8]), 63.0%; in experiment [2] (setting [9]), 64.5%.

For the compound POE(15) Glyceryl Monooleate, the “NO. GROWTH POSITIVE 168 HR” value in experiment [1] (setting [10]) is given as 1. In experiment [2] (setting [10]), the “FLUORESCENCE - PERCENT POSITIVE 1 HR” value is on record as 0%, the “FLUORESCENCE - PERCENT POSITIVE 2 HR” value is recorded as 0%, the “FLUORESCENCE - PERCENT POSITIVE 3 HR” value was determined as 0% and the “FLUORESCENCE - PERCENT POSITIVE 4 HR” value is 0%.

With POE(15) Glyceryl Monostearate, the “NO. GROWTH POSITIVE 168 HR” value in experiment [1] (setting [10]) was found to be 7. In experiment [1] (setting [11]), the “NO. GROWTH POSITIVE 168 HR” value is given as 4. Besides, in experiment [2] (setting [10]), the “FLUORESCENCE - PERCENT POSITIVE 1 HR” value was 0%, the “FLUORESCENCE - PERCENT POSITIVE 2 HR” value worked out at 0%, the “FLUORESCENCE - PERCENT POSITIVE 3 HR” value worked out at 42.9% and the “FLUORESCENCE - PERCENT POSITIVE 4 HR” value is on record as 57.1%. Besides, in experiment [2] (setting [11]), the “FLUORESCENCE - PERCENT POSITIVE 1 HR” value amounted to 0%, the “FLUORESCENCE - PERCENT POSITIVE 2 HR” value turned out to be 0%, the “FLUORESCENCE - PERCENT POSITIVE 3 HR” value was determined as 0% and the “FLUORESCENCE - PERCENT POSITIVE 4 HR” value stood at 0%.

Source of the values: patent publication US7045343B2, “Sterilization indicator test packs” (3M Innovative Properties Company, priority 1998, dated 2006).
